Calls of active or inactive are those of the source.
How the values were obtained:
[1] = biological target: T1, Mannose-6-phosphate isomerase (Homo sapiens, UniProt P34949); assay: human PMI inhibitors, high substrate, primary screen, biochemical, fluorescence intensity, high mannose 6-phosphate (AID 1220)
T1 sequence (P34949 whole entry): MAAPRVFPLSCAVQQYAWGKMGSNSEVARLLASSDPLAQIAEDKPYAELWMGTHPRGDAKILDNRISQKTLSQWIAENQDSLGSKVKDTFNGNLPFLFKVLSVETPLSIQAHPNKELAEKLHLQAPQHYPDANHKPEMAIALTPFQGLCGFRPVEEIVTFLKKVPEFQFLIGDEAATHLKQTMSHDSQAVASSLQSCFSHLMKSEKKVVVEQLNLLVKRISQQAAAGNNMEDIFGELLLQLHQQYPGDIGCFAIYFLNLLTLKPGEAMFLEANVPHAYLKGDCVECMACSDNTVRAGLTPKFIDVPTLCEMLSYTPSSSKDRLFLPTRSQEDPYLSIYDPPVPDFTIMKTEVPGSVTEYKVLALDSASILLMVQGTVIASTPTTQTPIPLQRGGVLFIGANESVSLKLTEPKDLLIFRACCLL

[2] = biological target: Lysine-specific demethylase 4A (Homo sapiens, UniProt O75164); assay: JMJD2A histone demethylase inhibitors, dose response, selectivity assay for GASC-1 inhibitor project, biochemical, DELFIA europium, cherry-picked samples (AID 488840)
[3] = inhibitors of firefly luciferase expression or activity, dose response, H4 neuroglioma cells, luminescence (AID 1990); assay type: functional, cell-based
[4] = biological target: T2, Eukaryotic translation initiation factor 2-alpha kinase 3 (Homo sapiens, UniProt Q9NZJ5); assay: Dose response cell-based high-throughput screening assay to measure PERK inhibition. [Related pubchem assays: 1416 ]; assay type: functional
T2 sequence (Q9NZJ5 whole entry): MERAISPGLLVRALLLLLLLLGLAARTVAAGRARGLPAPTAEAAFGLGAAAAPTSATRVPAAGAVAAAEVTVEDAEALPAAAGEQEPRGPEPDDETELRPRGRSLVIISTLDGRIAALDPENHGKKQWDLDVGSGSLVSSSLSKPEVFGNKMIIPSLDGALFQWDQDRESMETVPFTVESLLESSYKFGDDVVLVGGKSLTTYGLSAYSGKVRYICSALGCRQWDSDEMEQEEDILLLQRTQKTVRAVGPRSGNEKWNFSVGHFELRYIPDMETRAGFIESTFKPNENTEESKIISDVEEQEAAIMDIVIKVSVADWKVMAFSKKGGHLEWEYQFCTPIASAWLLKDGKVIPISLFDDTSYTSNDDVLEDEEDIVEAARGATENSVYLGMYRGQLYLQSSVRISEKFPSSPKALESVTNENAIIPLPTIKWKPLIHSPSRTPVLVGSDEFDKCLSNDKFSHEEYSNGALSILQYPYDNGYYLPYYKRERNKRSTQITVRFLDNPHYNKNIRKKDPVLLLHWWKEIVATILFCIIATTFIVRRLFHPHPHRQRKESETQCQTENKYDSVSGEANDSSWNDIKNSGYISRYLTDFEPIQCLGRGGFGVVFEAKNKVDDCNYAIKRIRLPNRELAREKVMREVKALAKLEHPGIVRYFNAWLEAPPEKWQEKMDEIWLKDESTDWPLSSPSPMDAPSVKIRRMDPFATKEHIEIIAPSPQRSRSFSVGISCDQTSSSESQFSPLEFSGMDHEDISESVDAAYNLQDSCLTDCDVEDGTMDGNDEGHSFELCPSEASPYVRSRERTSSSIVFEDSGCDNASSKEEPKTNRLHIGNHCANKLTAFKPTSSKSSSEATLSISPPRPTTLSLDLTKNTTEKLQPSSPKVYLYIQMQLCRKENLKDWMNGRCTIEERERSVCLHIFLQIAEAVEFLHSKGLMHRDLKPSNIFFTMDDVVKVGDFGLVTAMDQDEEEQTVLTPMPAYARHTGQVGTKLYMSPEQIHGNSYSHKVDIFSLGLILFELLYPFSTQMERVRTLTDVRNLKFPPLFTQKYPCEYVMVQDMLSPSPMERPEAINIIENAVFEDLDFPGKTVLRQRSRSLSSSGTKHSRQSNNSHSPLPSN

[5] = Luminescence Cell-Based Dose Response HTS to Identify Inhibitors of 5'UTR Stem-Loop Driven Prion Protein mRNA Translation in H4 Neuroglioblastoma Cells. [Related pubchem assays: 1827 (Project Summary), 1813 (Primary HTS)]; assay type: functional
[6] = inhibitors of SNCA 5'UTR-driven reporter translation, confirmation, H4 neuroglioma cells, luminescence (AID 1988); assay type: functional, cell-based
[7] = biological target: T2, Eukaryotic translation initiation factor 2-alpha kinase 3; assay: Counterscreen assay for PERK inhibitors: Dose response cell-based high throughput screening assay to measure inhibition of PERK at 6 hours. [Related pubchem assays: 1522, 1416 ]; assay type: functional
Cytochrome P450 2D6 = Cytochrome P450 2D6 (Homo sapiens, UniProt P10635);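 further: CYP2D6 member of a cytochrome P450 panel assay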
Cytochrome P450 2C19 = Cytochrome P450 2C19 (Homo sapiens, UniProt P33261); assay: Cytochrome panel assay with activity outcomes. Panel member name: p450-cyp2c19 Compounds with AC50 equal or less than 10 uM are considered active; assay type: functional
HEK293 [8] = assay: cells; details: Homo sapiens
HEK293 [9] = assay: cells; details: Homo sapiens; remark: listed apart in the source

Chain of Cytochrome P450 2D6 (P10635 whole entry): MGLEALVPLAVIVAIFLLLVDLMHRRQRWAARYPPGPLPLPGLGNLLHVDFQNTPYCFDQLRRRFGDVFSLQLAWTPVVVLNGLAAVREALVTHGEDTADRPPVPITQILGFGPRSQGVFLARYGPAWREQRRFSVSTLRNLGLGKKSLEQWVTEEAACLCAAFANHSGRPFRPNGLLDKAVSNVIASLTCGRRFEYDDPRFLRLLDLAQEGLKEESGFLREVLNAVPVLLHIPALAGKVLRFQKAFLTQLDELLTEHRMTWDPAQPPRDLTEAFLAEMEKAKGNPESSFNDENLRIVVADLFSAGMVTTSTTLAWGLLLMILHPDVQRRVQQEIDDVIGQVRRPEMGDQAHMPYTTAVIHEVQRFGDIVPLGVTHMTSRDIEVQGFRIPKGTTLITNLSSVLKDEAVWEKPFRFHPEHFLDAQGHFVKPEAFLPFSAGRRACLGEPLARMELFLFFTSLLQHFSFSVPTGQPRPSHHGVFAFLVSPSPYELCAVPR
Chain of Lysine-specific demethylase 4A (O75164 whole entry): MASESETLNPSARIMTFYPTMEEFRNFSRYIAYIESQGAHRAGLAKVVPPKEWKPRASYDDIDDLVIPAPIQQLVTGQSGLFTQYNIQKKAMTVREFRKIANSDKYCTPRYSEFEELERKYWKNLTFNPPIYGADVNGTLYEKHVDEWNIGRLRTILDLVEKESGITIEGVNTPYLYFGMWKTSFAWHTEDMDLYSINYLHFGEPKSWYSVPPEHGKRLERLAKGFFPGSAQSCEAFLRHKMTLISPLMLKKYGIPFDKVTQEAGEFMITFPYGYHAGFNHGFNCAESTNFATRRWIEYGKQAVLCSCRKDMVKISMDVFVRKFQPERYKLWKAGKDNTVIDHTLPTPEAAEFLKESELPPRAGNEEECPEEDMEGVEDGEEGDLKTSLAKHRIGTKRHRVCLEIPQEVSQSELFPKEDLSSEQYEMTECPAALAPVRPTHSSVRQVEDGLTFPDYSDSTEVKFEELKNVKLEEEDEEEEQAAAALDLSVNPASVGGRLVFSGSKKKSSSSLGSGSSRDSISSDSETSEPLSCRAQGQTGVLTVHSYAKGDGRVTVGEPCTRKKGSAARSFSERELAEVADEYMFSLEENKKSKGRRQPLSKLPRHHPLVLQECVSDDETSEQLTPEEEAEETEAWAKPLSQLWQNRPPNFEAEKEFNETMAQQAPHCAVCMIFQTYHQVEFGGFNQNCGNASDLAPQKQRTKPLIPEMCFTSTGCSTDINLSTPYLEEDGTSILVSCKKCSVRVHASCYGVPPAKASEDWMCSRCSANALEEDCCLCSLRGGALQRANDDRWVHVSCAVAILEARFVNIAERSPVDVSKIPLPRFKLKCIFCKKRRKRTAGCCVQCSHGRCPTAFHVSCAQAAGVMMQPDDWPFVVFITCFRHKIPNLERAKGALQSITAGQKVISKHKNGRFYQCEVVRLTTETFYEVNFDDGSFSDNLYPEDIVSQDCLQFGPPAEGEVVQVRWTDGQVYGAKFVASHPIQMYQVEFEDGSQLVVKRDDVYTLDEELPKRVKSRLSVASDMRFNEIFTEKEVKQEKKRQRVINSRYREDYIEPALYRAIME
Chain of Cytochrome P450 2C19 (P33261 whole entry): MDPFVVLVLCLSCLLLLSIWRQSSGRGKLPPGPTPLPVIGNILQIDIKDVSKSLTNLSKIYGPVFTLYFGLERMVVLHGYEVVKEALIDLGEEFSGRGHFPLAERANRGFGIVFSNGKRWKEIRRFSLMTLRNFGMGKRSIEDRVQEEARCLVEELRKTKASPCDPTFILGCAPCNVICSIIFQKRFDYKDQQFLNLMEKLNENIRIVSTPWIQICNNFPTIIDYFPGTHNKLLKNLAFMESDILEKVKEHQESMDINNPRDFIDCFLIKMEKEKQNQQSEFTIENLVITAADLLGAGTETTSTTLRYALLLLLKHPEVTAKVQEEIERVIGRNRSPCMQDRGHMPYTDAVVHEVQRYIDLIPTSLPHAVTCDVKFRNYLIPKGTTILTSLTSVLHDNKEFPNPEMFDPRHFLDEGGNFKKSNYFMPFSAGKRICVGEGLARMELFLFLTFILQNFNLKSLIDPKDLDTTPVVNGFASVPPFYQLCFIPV

CC(=O)Nc1ccc2c(c1)C(C)(C)C(C)N2C (configuration not stated)
IC50 [1]: > 50 µM (not active) | AC50 [2]: 17.9 µM (active)

CC(C)n1nnnc1-c1cc(Cl)cc(Cl)c1
EC50 [3]: > 120 µM (not active) | EC50 [4]: > 55.7 µM (not active) | EC50 [5]: 10.2 µM (active) | EC50 [6]: > 120 µM (not active) | EC50 [7]: > 55.7 µM (not active) | AC50 (Cytochrome P450 2D6): inconclusive

C[N+](C)(N)CCC[N+](C)(C)N
AC50 (Cytochrome P450 2C19): inconclusive | AC50 (Cytochrome P450 2D6): inconclusive

CCc1nn(C(CC)C(=O)NCCc2ccc(OC)cc2OC)c(=O)c2cc3occc3n12 (configuration not stated)
EC50 (HEK293 [8]): > 59.6 µM (inactive) | EC50 (HEK293 [9]): > 59.6 µM (inactive)
